Tested on: neurokinin receptors such as NK-P, NK-A and NK-B
Conditions: several in vitro models

**Q.** With CSCC[C@H](NC(=O)[C@H](CC(C)C)NC(=O)CNC(=O)OCCCCCn1cnc2c(=O)[nH]cnc21)C(=O)O [Example 3] as the compound, how does the neurokinin-like activity read?
**A.** showed neurokinin-like activity
